Columns and labels:
[1] = test system: platelets; assay: ADP-induced platelet aggregation (RGD function); assay type: cell-based, human; details: summary of FIG. 3D
Method: (§1) Platelet aggregation: Platelet aggregation was measured by the increase in light transmission as described in Lu et al (1994) Biochem J 304: 929-936 and used to identify RGD function. Briefly, platelet rich plasma (PRP) was prepared from citrated human blood from healthy individuals by centrifugation at 200 g for 15 min. Platelets were prepared from PRP by centrifugation at 1200 g for 15 min. The pellets were washed and resuspended in adhesion/aggregation buffer (145 mM NaCl, 5 mM Kcl, 1 mM MgCl2, 2 mM CaCl2, 10 mM glucose, 3.5 mg/ml BSA and 10 mM HEPES, pH 7.35) and adjusted to a count of 3×10^8/ml. Platelet aggregation (320 μl incubations) was induced with 10 μM ADP in the presence of 1.67 mg/ml fibrinogen and measured using a Payton Dual-Aggregometer linked to a chart recorder.

[2] = test system: washed platelets; assay: Thrombin-induced platelet aggregation; assay type: cell-based, human; details: summary of FIG. 3D
Method: as §1
Thrombin-induced platelet aggregation: Thrombin-induced platelet aggregation in washed platelets for both wild-type and mutant dendroaspins were determined as described in Example 3 above, except thrombin was used as an agonist.

[3] = biological target: thrombin (Homo sapiens, UniProt P00734); assay: Thrombin-induced fibrinogen clotting time; assay type: biochemical; details: summary of FIG. 3D
Method: Thrombin-induced fibrinogen clotting time: Thrombin-induced fibrinogen clotting time was determined using an Amelung KC-10 instrument as follows. 50 μl of thrombin (3.3 μg/ml) in 50 mM Tris-HCL, pH7.5, containing 150 mM NaCl and 5 mM CaCl2 was mixed with 10 μl of various concentrations of both modified (Den-TM) and wild type dendroaspin (as a control for comparison). After a 2 min incubation at 37° C., 100 μl of fibrinogen (160 μg/ml) in the same buffer was added to determine the clotting time.
Amidolytic activity of thrombin and clotting of fibrinogen: The amidolytic activity of α-thrombin was performed using the chromogenic substrate S-2238 (Chromogenix) and α-thrombin at a final concentration of 0.06 unit/ml. Thrombin releases p-nitroaniline from the substrate and the rate of this reaction was monitored in microtiter plates at 405 nm using an automated spectrophotometer (Autoreader III, Ortho Diagnostic Systems). The inhibitory effect of Den-HR on thrombin cleavage of the chromogenic substrate was measured at final concentration between nM-mM. […] The time to observe the start of fibrinogen clotting (thrombin time) was measured using an automated coagulometer at 37° C. The effect of mutants on fibrinogen clotting by α-thrombin was determined by substituting the HEPES buffer in the first mixture with mutants at a range of concentrations.

[4] = test system: platelet adhesion to fibrinogen; details: Lu X et al (1994); cited from earlier work
[5] = test system: binding of platelets to immobilized fibronectin; details: Lu X et al (1994); cited from earlier work

| Molecule | inhibition of ADP-induced platelet aggregation [1] | inhibition of thrombin-induced platelet aggregation [2] | thrombin clotting time [3] | inhibition of platelet adhesion to fibrinogen [4] | inhibition of binding of platelets to immobilized fibronectin [5] |
| --- | --- | --- | --- | --- | --- |
| SEQ ID NO:46: dendroaspin carrying the thrombomodulin-binding sequence of the B-chain of human thrombin; bifunctional molecule (RICFTPRGDMPGPYPGPCQEDSCYKNIWTFDNIIRRGPGPTWTANVGKGQPS) | inhibits | inhibits | delay | – | – |
| kistrin | – | – | – | potent inhibitors | poor antagonists |
| SEQ ID NO:43: modified dendroaspin with hirudin domain grafted into loops I and II (protein) RICFTPRGDMPGPYPGPCQEDSCYKNIWTFDNIIRRGCGCFTPRGDMPGPYFPRPQSHNDGDFEEIPEEYLQ | inhibits | inhibits | delays | – | – |

— US6451976B1, “Bi-or multifunctional molecules based on a dendroaspin scaffold” (Trigen Limited, priority 1997, dated 2002)
